Patent publication US11458138B2 (Novartis AG, priority 2017, dated 2022)

Key:
[1] = system: Phospho-YAP (SER127) in HaCaT cells; assay: pYAP HTRF Assay (HaCaT Cells); format: cell-based, human; details: Homo sapiens, 2 hours
In short: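 HaCaT cells at 5500 cells/well were cultured 48 hours at 37° C, then treated with compound for 2 hours. Phospho-YAP (Ser127) was detected by HTRF after an overnight (20 hrs) room-temperature incubation, read as the 665 nm/620 nm ratio.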

[2] = system: human limbal stem cells (LSCs); assay: Human limbal stem cell population expansion, immunohistochemical observation of p63alpha; format: cell-based; details: for LSC colony formation and p63alpha expression: 10 micromolar, 6 days without passaging
Protocol: Cells obtained as described in Example B1 were plated in 24-well plates (Corning) in limbal epithelium cell culture medium (DMEM F12 supplemented with 10% human serum and 1.3 mM calcium chloride) supplemented with LATS inhibitor compound example no. […] Cells were first cultured at 37° C. in 5% CO2 for 6 days after isolation without passaging (FIGS. 2A, 2B and 2C).
To evaluate the ability of the compounds to enable LSC expansion after two passages, LSCs were passaged and cultured for two weeks in the presence of compound example 49 to enable expansion (FIG. 2D). Limbal stem cells (LSCs) were passaged by treating cultures with Accutase for 10 minutes at 37° C., rinsing the cell suspension by centrifugation and plating cells in fresh LSC culture medium supplemented with LATS inhibitor compound example 49.
In order to observe that the expanded cell population expressed p63alpha, this was measured by immunohistochemistry as follows. Cell cultures were fixed with 4% PFA for 20 minutes, permeabilized and blocked in a blocking solution of 0.3% Triton X-100 (Sigma-Aldrich) and 3% donkey serum in PBS for 30 minutes. Cells were then labeled with primary antibody in the blocking solution for 12 hours at 4° C. Primary antibody used was p63alpha from Cell Signalling. Samples were washed in PBS three times and donkey-raised secondary antibody Alexa Fluor 488 (Molecular Probes) at 1:500 dilution were applied for 30 minutes at room temperature. Cells were counter-stained with a human nuclear antigen antibody (Millipore) at a 1:500 dilution in order to label all cells in the culture and confirm their human identity. […] Fluorescence was observed using a Zeiss LSM 880 confocal microscope.

[3] = system: human limbal stem cells (LSCs); assay: Human limbal stem cell population expansion: expansion factor; format: cell-based; details: 10 micromolar, XVIVO15 medium, two passages, ratio of expanded to seeded cells
Protocol: Cells were cultured at 37° C. in 5% CO2.
For each compound, two sets of cultures were generated. A first set of cultures was fixed in 4% PFA for 20 minutes at room temperature after cells isolated from the cornea had attached to the cell culture dish (typically 24 h after cell plating). A second set of cultures was fixed in 4% PFA for 20 minutes at room temperature after being cultured for two passages. Cells were passaged when they reached 90-100% confluence.
To evaluate cell expansion ratios, nuclei were counted using a Zeiss LSM 880 confocal microscope. The expansion factor was then determined by calculating the ratio of the expanded population of cells to population of seeded cells.

[4] = system: YAP phosphorylation in limbal stem cells (LSCs); assay: YAP dephosphorylation in LSCs by Western blot; format: cell-based, human; details: within one hour of treatment
[5] = system: YAP nuclear translocation in HaCaT cells; assay: YAP Translocation Assay (HaCaT Cells); format: cell-based, human; details: Homo sapiens, 24 hours
In short: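 HaCaT cells (20,000/well) in DMEM + 10% FBS were plated overnight at 37° C, then exposed to compound for 24 h at 37° C. Cells were fixed with PFA, permeabilized with 0.1% Triton/1.5% BSA and imaged by high-content imaging.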

YAP in human LSCs = assay: Intracellular YAP distribution in limbal epithelial cells (LSCs); format: cell-based; details: 10 micromolar, 24 hours, vs DMSO
Protocol: Cells obtained as described in Example B1 were plated in glass-bottom black wall 24-well dishes in limbal epithelium cell culture medium (DMEM F12 supplemented with 10% human serum and 1.3 mM calcium chloride) supplemented with LATS inhibitor compound example no. […] Cells were cultured under these conditions for 24 hours at 37° C. in 5% CO2.
To measure the effect of the LATS inhibitors on the downstream target YAP, intracellular YAP distribution was analyzed by immunohistochemistry. Cell cultures were fixed with 4% PFA for 20 minutes, permeabilized and blocked in a blocking solution of 0.3% Triton X-100 (Sigma-Aldrich) and 3% donkey serum in PBS for 30 minutes. Cells were then labeled with primary antibody in the blocking solution for 12 hours at 4° C. Primary antibody used was anti-YAP from Santa Cruz Biotechnology. Samples were washed in PBS three times and donkey-raised secondary antibody Alexa Fluor 488 (Molecular Probes) at 1:500 dilution were applied for 30 minutes at room temperature. […] Fluorescence was observed using a Zeiss LSM 880 confocal microscope.

Compound | IC50 [1] | LSC colony formation and p63alpha expression [2] | Expansion factor [3] | YAP dephosphorylation in LSCs [4] | EC50 [5] | YAP immunostaining in the nucleus of LSCs (YAP in human LSCs) | LSC population expansion after passaging ([2]; passaged and cultured two weeks)
Cc1n[nH]cc1-c1nc(NC2(C)CC2)c2ccncc2n1 [Example 133, 2-(3-methyl-1H-pyrazol-4-yl)-N-(1-methylcyclopropyl)pyrido[3,4-d]pyrimidin-4-amine] | 414 nM | the cells formed colonies and expressed p63alpha | 1205 | induce YAP dephosphorylation | 1670 nM | stronger in the nucleus | 
c1cc(-c2nc(NC3CCCC3)c3ccncc3n2)ccn1 [Example 65, N-cyclopentyl-2-(pyridin-4-yl)pyrido[3,4-d]pyrimidin-4-amine] | 895 nM |  | 1048 |  | 1990 nM |  | 
CC(C)(O)CC(C)(C)Nc1nc(-c2ccncc2)nc2cnccc12 [Example 49, 2,4-dimethyl-4-{[2-(pyridin-4-yl)pyrido[3,4-d]pyrimidin-4-yl]amino}pentan-2-ol] | 607 nM | the cells formed colonies and expressed p63alpha | 2029 | induce YAP dephosphorylation | 1170 nM | stronger in the nucleus | enabled cell population expansion and the formation of confluent cultures expressing p63alpha
CCCNc1nc(-c2ccncc2)nc2cnccc12 [Example 14, N-propyl-2-(pyridin-4-yl)pyrido[3,4-d]pyrimidin-4-amine] | 7310 nM |  | 1423 |  | 4250 nM |  | 
CC(C)(C)Nc1cc(-c2ccncc2)nc2cnccc12 [Example 261, N-(tert-butyl)-2-(pyridin-4-yl)-1,7-naphthyridin-4-amine] | 202 nM |  | 1717 |  | 1220 nM |  | 
